Read-outs that look alike come from different tables or passages of the source.
Columns and labels:
adenosine A1 receptor = biological target: T1, adenosine A1 receptor (Rattus norvegicus, UniProt P25099); test: Adenosine Receptor Binding - A1 Receptor Affinity (RBA1), [3H]-N6-cyclohexyladenosine displacement; conditions: [3H]-CHA 1.0 nM, rat brain membranes, 25° C., one hour; read-out: RBA-1, IC50 for adenosine A1 receptor affinity
T1 construct: Whole brain minus cerebellum and brainstem from male Long Evans rats; from tissue; host or cells: whole brain minus cerebellum and brainstem, male Long Evans rats (membranes)
T1 sequence (P25099 1-326): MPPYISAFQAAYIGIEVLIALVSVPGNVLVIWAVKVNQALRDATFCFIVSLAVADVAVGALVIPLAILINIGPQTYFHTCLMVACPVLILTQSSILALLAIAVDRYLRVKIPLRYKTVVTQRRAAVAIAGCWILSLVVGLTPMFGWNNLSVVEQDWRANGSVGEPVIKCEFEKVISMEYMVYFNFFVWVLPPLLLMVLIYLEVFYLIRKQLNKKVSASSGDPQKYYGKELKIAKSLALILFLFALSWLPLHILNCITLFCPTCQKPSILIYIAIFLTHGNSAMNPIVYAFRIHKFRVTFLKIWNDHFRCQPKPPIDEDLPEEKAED
How it was run: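 Rat forebrain membranes (whole brain minus cerebellum and brainstem, male Long Evans) washed in 0.05 M Tris-HCl pH 7.7, used at 20 mg/ml wet tissue. Bound [3H]-N6-cyclohexyladenosine measured by filtration and scintillation counting; Hill coefficient by log-plot regression, Bmax from Scatchard plot.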

Type 1 Phosphodiesterase = test: Phosphodiesterase (PDE) Inhibition, Type 1 Phosphodiesterase; type: biochemical, bovine (coronary arteries); conditions: Type 1 PDE, at 10^-5 M
How it was run: (§1)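 PDEs isolated from bovine coronary artery by DEAE-cellulose chromatography, fractions typed by cAMP/cGMP hydrolysis ± calmodulin/CaCl2. Assay in 40 mM Tris-HCl (pH 8.0), 5 mM MgCl, 4 mM 2-mercaptoethanol with 1.0 μM ^3H-cyclic AMP or ^3H-cyclic GMP; final DMSO 1.25% (smooth muscle) or 2.5% (cardiac, platelet).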

Type 3 Phosphodiesterase = test: Phosphodiesterase (PDE) Inhibition, Type 3 Phosphodiesterase; type: biochemical, bovine (coronary arteries); conditions: Type 3 PDE, at 10^-5 M, substrate 3H-cAMP 1.0 μM
How it was run: as §1

[1] = test system: pentobarbital-anesthetized dog; test: In Vivo Myocardial Inotropic Activity in Anesthetized Dog (CVAD); design: species or system dog (adult mongrel); conditions: for change in vivo at 0.1 mg/kg / change in vivo at 0.31 mg/kg / change in vivo at 1 mg/kg: Canis lupus familiaris, iv; for change in vivo at 0.1 mg/kg: 0.10 mg/kg IV
How it was run: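 Adult mongrel dogs under pentobarbital anaesthesia (35 mg/kg IV, then 3.5 mg/kg/hour infusion), breathing spontaneously; increasing compound doses given IV via femoral vein, each over one minute. LV dP/dt max, heart rate (lead II ECG) and aortic pressure recorded by catheter transducers against ≥30 min control baseline; vehicle controls as needed.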

IC50 (adenosine A1 receptor): 1920 nM | % Inhibition of hydrolysis of 3H-cAMP (Type 1 Phosphodiesterase; substrate 3H-cAMP 1.0 μM): 10% | % Inhibition of hydrolysis of 3H-cGMP (Type 1 Phosphodiesterase; substrate 3H-cGMP 1.0 μM): 17% | % Inhibition of hydrolysis of 3H-cAMP (Type 3 Phosphodiesterase): 17%
SMILES: COc1ccc(-c2nc3c(C)nn(C)c3c(=O)[nH]2)cc1OC [Example 16, 1,3-Dimethyl-5-(3,4-dimethoxyphenyl)pyrazolo[4,3-d]pyrimidine-7-one]
Percent Change Blood Pressure ([1]; 0.31 mg/kg IV): 1/3 | Percent Change Blood Pressure ([1]; 1.00 mg/kg IV): 1/2 | change in vivo at 0.1 mg/kg ([1]; read-out: Percent Change Heart Rate): 1% | change in vivo at 0.1 mg/kg ([1]; read-out: Percent Change Myocardial Contractility): 2% | change in vivo at 0.31 mg/kg ([1]; 0.31 mg/kg IV, read-out: Percent Change Heart Rate): -1% | change in vivo at 0.31 mg/kg ([1]; 0.31 mg/kg IV, read-out: Percent Change Myocardial Contractility): -1% | change in vivo at 1 mg/kg ([1]; 1.00 mg/kg IV, read-out: Percent Change Heart Rate): -2% | change in vivo at 1 mg/kg ([1]; 1.00 mg/kg IV, read-out: Percent Change Myocardial Contractility): -1%
